This note sets out measurements from patent US7115600B2, “Histamine-3 receptor modulators” (Pfizer Inc., priority 2004, dated 2006).

The target of this test is T1, rat histamine H3 receptors (Rattus norvegicus, UniProt Q9QYN8).
T1 construct: Frozen rat frontal brain or frozen human post-mortem frontal brain is homogenized; from tissue; host or cells: rat frontal brain membranes
In words: Rat Histamine H3 Receptor Binding. Particulars: frozen rat frontal brain membranes; radioligand 1 nM 3H-N-methyl-histamine; 1 hour incubation; read-out: rH3 Ki.

T1 sequence (Q9QYN8 whole entry): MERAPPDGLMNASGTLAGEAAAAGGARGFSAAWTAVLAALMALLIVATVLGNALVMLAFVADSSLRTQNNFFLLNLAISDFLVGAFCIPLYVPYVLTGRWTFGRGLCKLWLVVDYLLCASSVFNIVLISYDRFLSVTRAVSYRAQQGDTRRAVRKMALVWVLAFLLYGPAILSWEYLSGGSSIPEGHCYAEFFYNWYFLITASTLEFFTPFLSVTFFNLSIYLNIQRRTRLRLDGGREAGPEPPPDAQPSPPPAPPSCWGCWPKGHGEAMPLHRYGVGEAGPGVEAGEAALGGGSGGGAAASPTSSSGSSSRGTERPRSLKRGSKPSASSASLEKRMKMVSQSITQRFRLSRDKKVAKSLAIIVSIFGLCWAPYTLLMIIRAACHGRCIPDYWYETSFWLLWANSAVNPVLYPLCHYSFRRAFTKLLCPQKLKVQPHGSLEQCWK
Procedure: The in vitro affinity of the compounds in the present invention at the rat or human histamine H3 receptors can be determined according to the following procedure. Frozen rat frontal brain or frozen human post-mortem frontal brain is homogenized in 20 volumes of cold 50 mM Tris HCl containing 2 mM MgCl2 (pH to 7.4 at 4 degrees C.). The homogenate is then centrifuged at 45,000 G for 10 minutes. The supernatant is decanted and the membrane pellet resuspended by Polytron in cold 50 mM Tris HCl containing 2 mM MgCl2 (pH to 7.4 at 4 degrees C.) and centrifuged again. The final pellet is resuspended in 50 mM Tris HCl containing 2 mM MgCl2 (pH to 7.4 at 25 degrees C.) at a concentration of 12 mg/mL. Dilutions of compounds are made in 10% DMSO/50 mM Tris buffer (pH 7.4) (at 10× final concentration, so that the final DMSO concentration is 1%). Incubations are initiated by the addition of membranes (200 microliters) to 96 well V-bottom polypropylene plates containing 25 microliters of drug dilutions and 25 microliters of radioligand (1 nM final concentration 3H—N-methyl-histamine). After a 1 hour incubation, assay samples are rapidly filtered through Whatman GF/B filters and rinsed with ice-cold 50 nM Tris buffer (pH 7.4) using a Skatron cell harvester. Radioactivity is quantified using a BetaPlate scintillation counter. The percent inhibition of specific binding can then be calculated.

Turning to `COc1ccc(-c2cnc(OC[C@H]3C[C@@H](c4ccc(CN5CCCC5)cc4)C3)nc2)cc1` [Example 92, cis-5-(4-Methoxy-phenyl)-2-[3-(4-pyrrolidin-1-ylmethyl-phenyl)-cyclobutylmethoxy]-pyrimidine], the Ki is 0.118 µM.
For `Cc1cnc(OC[C@H]2C[C@@H](c3ccc(CN4CCCC4)cc3)C2)nc1C1CCNCC1` [Example 81, cis-5-Methyl-4-piperidin-4-yl-2-[3-(4-pyrrolidin-1-ylmethyl-phenyl)-cyclobutylmethoxy]-pyrimidine] the value was 0.058 µM; for `N#Cc1ccccc1COCC1CC(c2ccc(CN3CCCC3)cc2)C1` (centres unmarked) [Example 6, 2-[3-(4-Pyrrolidin-1-ylmethyl-phenyl)-cyclobutylmethoxymethyl]-benzonitrile], 0.122 µM; for `c1ccc2c(c1)CN(C[C@H]1C[C@H](c3ccc(CN4CCCC4)cc3)C1)C2` [Example 125, trans-2-[3-(4-Pyrrolidin-1-ylmethyl-phenyl)-cyclobutylmethyl]-2,3-dihydro-1H-isoindole], 0.00177 µM.
Under `c1cc([C@H]2C[C@H](CN3CCCC3)C2)ccc1CN1CCCC1` [Example 107, trans-1-[3-(4-Pyrrolidin-1-ylmethyl-phenyl)-cyclobutylmethyl]-pyrrolidine] stands 0.00209 µM.
For `FC(F)(F)c1cc(-c2ccccc2)nc(OC[C@H]2C[C@@H](c3ccc(CN4CCCC4)cc3)C2)n1` [Example 76, cis-4-Phenyl-2-{[3-(4-pyrrolidin-1-ylmethyl-phenyl)-cyclobutylmethyl]oxy}-6-trifluoromethyl-pyrimidine] the value was 0.00189 µM; for `COC[C@@H]1CCCN1C[C@H]1C[C@H](c2ccc(CN3CCCC3)cc2)C1` [Example 128, trans-(S)-2-Methoxymethyl-1-[3-(4-pyrrolidin-1-ylmethyl-phenyl)-cyclobutylmethyl]-pyrrolidine], 0.00891 µM.
As for `Cc1nnc(OC[C@H]2C[C@@H](c3ccc(CN4CCCC4)cc3)C2)c2ccccc12` [Example 78, cis-1-Methyl-4-[3-(4-pyrrolidin-1-ylmethyl-phenyl)-cyclobutylmethoxy]-phthalazine], the Ki turned out to be 0.11 µM.
For `c1ccc(COCC2CC(c3ccc(CN4CCCC4)cc3)C2)cc1` (centres unmarked) [Example 2, 1-[4-(3-Benzyloxymethyl-cyclobutyl)-benzyl]-pyrrolidine] the value was 0.0988 µM.
Turning to `Fc1cnc(N2CCN(C[C@H]3C[C@@H](c4ccc(CN5CCCC5)cc4)C3)CC2)nc1` [Example 102, cis-5-Fluoro-2-{4-[3-(4-pyrrolidin-1-ylmethyl-phenyl)-cyclobutylmethyl]-piperazin-1-yl}-pyrimidine], the Ki was 0.00183 µM.
For `Cc1ccc(COCC2CC(c3ccc(CN4CCCC4)cc3)C2)cc1` (centres unmarked) [Example 27, 1-{4-[3-(4-Methyl-benzyloxymethyl)-cyclobutyl]-benzyl}-pyrrolidine] the value was 0.0742 µM; for `c1cnc(OCC2CC(c3ccc(CN4CCCC4)cc3)C2)cn1` (centres unmarked) [Example 40, 2-[3-(4-Pyrrolidin-1-ylmethyl-phenyl)-cyclobutylmethoxy]-pyrazine], 0.0743 µM; for `c1ccc(OCC2CC(c3ccc(CN4CCCC4)cc3)C2)nc1` (centres unmarked) [Example 42, 2-[3-(4-Pyrrolidin-1-ylmethyl-phenyl)-cyclobutylmethoxy]-pyridine], 0.131 µM.
Consider `Cc1ccc(C)n1-c1ccc(OC[C@H]2C[C@@H](c3ccc(CN4CCCC4)cc3)C2)nn1` [Example 90, cis-3-(2,5-Dimethyl-pyrrol-1-yl)-6-{[3-(4-pyrrolidin-1-ylmethyl-phenyl)-cyclobutylmethyl]oxy}-pyridazine], for which the Ki is 0.0336 µM.
Under `c1cc([C@H]2C[C@@H](CN3CCNCC3)C2)ccc1CN1CCCC1` [Example 101, cis-1-[3-(4-Pyrrolidin-1-ylmethyl-phenyl)-cyclobutylmethyl]-piperazine] stands 0.00481 µM.
For `c1cc([C@H]2C[C@@H](CN3CCCC3)C2)ccc1CN1CCCC1` [Example 103, cis-1-[3-(4-Pyrrolidin-1-ylmethyl-phenyl)-cyclobutylmethyl]-pyrrolidine] the value was 0.00393 µM; for `CC1CCCC(C)N1C[C@H]1C[C@H](c2ccc(CN3CCCC3)cc2)C1` (stereo partly drawn) [Example 121, trans-2,6-Dimethyl-1-[3-(4-pyrrolidin-1-ylmethyl-phenyl)-cyclobutylmethyl]-piperidine], 0.00281 µM.

Broadly, the Ki is the equilibrium dissociation constant of an inhibitor or competing ligand from its target.
